Reference: patent publication US20110070597A1, “Thin-Film Passive Samplers for Detection of Hydrophobic Organic Contaminants and Estrogenicity in Various Environments” (UNIVERSITY OF CONNECTICUT, priority 2009, published 2011)

Assay type: physicochemical
Description: The polymer coated glass samplers (POG) and the organic rapid equilibrating (ORE) samplers, 10 and 20, both consisting of a thin film (on the order of ˜1-2 μm) of EVA, were calibrated by experimental determination of EVA-Water partition coefficients and sampling rates. The ORE is comprised of a 1.4 μm EVA coating on a 5.1×7.6 cm titanium plate, while the POG utilizes a thin-film of EVA on a glass fiber filter.
A closed system experiment was used to calibrate the POG and ORE devices. Sampling rates and equilibration times were determined for fourteen PBDE congeners. EVA-Water partitioning coefficients (KEVA-W) were experimentally determined for 5 BDE congeners. A Log KEVA-W−Log KOW (Octanol-Water partitioning coefficient) plot was constructed and used to define Log KEVA-W partitioning coefficients for the 14 BDE congeners examined. Values ranged from 6.39 to 10.6. The experimental design was successful in parameterizing the desired constants. In sum, both samplers were successfully calibrated.
A dichloromethane rinsed 20 gallon fish tank was employed for the tank deployment experimental. Three POGs and three OREs were suspended from a stainless steel frame proximate the top of the tank.
Once dry, the tank was filled with artificial seawater comprising sodium chloride, sodium bicarbonate, magnesium sulfate, and high purity Milli-Q water. A handheld multiparameter instrument (YSI-556) was used to confirm salinity (31 parts per thousand), dissolved oxygen (0.19 mM), and temperature (20° C.) prior to starting the experiment. The tank was fit with a plexiglass lid sealed with polytetrafluoroethylene (PTFE; i.e., Teflon®) and duct tape.
The tank was spiked with 0.2 mL of the PBDE Predominant Congener Mixture in n-nonane from Cambridge Isotope laboratories and allowed to equilibrate for 48 hours. Samplers were removed from refrigeration and allowed to equilibrate to room temperature. 400 mL of water was taken to establish the initial concentration. Seven sets of three samplers were added to the tank. The tank was secured with a lid, PTFE and duct tape, as described above. Four hundred milliliter aliquots of tank water and one sampler set were removed at the following time intervals: 1 hr, 2 hrs, 6 hrs, 12 hrs, 3 days, 12 days, and 32 days. The tank was open to the air in the fume hood for less than 4 minutes during each sampling period. After removal, each sampler set was wrapped in pre-cleaned aluminum foil and placed frozen in an airtight bag at −20° C. until extraction and analysis. Water-side 400 mL aliquots were frozen at −20° C. until extraction and analysis.
The POGs and OREs were extracted for analysis of PBDE concentration.
Extracts were analyzed for BDE congeners 17, 28, 47, 66, 71, 85, 99, 100, 138, 153, 154, 183, 190, and 209 by gas chromatography-mass spectrometry (GC/MS). Masses 79 (PBDEs) and 414 (Mirex) were used for quantification with Masses 81 (PBDEs), 487, 486 (DecaBDE), and 412 (Mirex) acting as confirmation ions. Extracts were identified and quantified by comparison with known concentrations of prepared standard solutions.
Sampling rates were calculated experimentally using Equation 2. The sampling rates varied between sampler types. The differences in sampling rates were likely due to variations in the thickness and heterogeneity versus homogeneity of the thin film coating on the respective plates. Sampling rates (RS(s)) were calculated at 1, 2, or 6 hrs depending upon the shape of the uptake curve.

| Compound | LOG KEVA-W (EVA-water partition coefficient) ORE | LOG KEVA-W (EVA-water partition coefficient) POG |
| --- | --- | --- |
| Brc1ccc(Oc2ccccc2Br)c(Br)c1 [BDE 17] | 6.40 ± 0.08 | 6.01 ± 0.07 |
| Brc1ccc(Oc2ccc(Br)cc2Br)cc1 [BDE 28] | 6.38 ± 0.10 | 5.90 ± 0.06 |
| Brc1ccc(Oc2ccc(Br)cc2Br)c(Br)c1 [BDE 47] | 6.79 ± 0.10 | 6.43 ± 0.07 |
| Brc1ccc(Oc2ccc(Br)c(Br)c2)c(Br)c1 [BDE 66] | 6.66 ± 0.11 | 6.25 ± 0.07 |
| Brc1ccc(Oc2c(Br)cccc2Br)cc1Br [BDE 71] | 6.67 ± 0.02 | 6.24 ± 0.05 |
